{
  "source": "paper PMC6978363",
  "about": "“Chaperone mediated detection of small molecule target binding in cells” (Nature Communications, 2020)",
  "test_in_all_cases": "biochemical",
  "key": {"GRK2": {"molecular_target": "GRK2 (Homo sapiens, UniProt P25098)", "settings": "read-out: % Inhibition (at 10mM)"}, "EphA5": {"molecular_target": "EphA5 (Homo sapiens, UniProt P54756)", "settings": "read-out: % Inhibition (at 10mM)"}, "Ros": {"molecular_target": "T1, Ros (Homo sapiens, UniProt P08922)", "T1 construct": "gene ROS1", "settings": "read-out: % Inhibition (at 10mM)"}, "p70S6Kb": {"molecular_target": "T2, p70S6Kb (Homo sapiens, UniProt Q9UBS0)", "T2 construct": "gene RPS6KB2", "settings": "read-out: % Inhibition (at 10mM)"}, "PRKAA1": {"molecular_target": "PRKAA1 (Homo sapiens, UniProt Q13131)", "settings": "read-out: % Inhibition (at 10mM)"}, "MuSK": {"molecular_target": "MuSK (Homo sapiens, UniProt O15146)", "sequence (O15146 whole entry)": "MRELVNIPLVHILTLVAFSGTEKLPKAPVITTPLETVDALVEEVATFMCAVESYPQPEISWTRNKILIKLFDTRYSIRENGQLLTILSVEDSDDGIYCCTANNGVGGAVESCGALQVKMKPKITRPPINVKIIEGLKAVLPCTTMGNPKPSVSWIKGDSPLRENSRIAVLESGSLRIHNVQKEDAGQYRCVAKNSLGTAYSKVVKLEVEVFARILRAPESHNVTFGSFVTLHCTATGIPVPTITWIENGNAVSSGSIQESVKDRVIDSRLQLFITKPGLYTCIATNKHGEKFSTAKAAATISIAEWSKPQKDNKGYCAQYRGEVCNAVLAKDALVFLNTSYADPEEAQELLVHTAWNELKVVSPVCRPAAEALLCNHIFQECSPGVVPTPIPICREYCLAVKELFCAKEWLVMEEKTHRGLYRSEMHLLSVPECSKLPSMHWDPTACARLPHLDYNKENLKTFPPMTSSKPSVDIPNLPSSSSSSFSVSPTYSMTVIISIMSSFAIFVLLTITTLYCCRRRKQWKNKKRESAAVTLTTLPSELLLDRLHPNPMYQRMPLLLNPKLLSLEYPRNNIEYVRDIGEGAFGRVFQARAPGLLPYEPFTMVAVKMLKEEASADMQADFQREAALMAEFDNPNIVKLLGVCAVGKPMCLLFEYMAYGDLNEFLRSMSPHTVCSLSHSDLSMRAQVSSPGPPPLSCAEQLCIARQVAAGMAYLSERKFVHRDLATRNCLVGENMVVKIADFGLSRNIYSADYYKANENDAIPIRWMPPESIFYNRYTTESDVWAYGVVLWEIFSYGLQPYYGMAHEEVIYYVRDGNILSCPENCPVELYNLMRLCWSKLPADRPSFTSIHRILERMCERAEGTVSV", "settings": "read-out: % Inhibition (at 10mM)"}, "PKC_gamma": {"molecular_target": "T3, PKC_gamma (Homo sapiens, UniProt P05129)", "T3 construct": "gene PRKCG", "settings": "read-out: % Inhibition (at 10mM)"}, "PKC_beta1": {"molecular_target": "T4, PKC_beta1 (Homo sapiens, UniProt P05771)", "T4 construct": "gene PRKCB; isoform beta1", "settings": "read-out: % Inhibition (at 10mM)"}, "EphA8": {"molecular_target": "EphA8 (Homo sapiens, UniProt P29322)", "settings": "read-out: % Inhibition (at 10mM)"}, "Rse": {"molecular_target": "T5, Rse (Homo sapiens, UniProt Q06418)", "T5 construct": "gene TYRO3", "T5 sequence (Q06418 whole entry)": "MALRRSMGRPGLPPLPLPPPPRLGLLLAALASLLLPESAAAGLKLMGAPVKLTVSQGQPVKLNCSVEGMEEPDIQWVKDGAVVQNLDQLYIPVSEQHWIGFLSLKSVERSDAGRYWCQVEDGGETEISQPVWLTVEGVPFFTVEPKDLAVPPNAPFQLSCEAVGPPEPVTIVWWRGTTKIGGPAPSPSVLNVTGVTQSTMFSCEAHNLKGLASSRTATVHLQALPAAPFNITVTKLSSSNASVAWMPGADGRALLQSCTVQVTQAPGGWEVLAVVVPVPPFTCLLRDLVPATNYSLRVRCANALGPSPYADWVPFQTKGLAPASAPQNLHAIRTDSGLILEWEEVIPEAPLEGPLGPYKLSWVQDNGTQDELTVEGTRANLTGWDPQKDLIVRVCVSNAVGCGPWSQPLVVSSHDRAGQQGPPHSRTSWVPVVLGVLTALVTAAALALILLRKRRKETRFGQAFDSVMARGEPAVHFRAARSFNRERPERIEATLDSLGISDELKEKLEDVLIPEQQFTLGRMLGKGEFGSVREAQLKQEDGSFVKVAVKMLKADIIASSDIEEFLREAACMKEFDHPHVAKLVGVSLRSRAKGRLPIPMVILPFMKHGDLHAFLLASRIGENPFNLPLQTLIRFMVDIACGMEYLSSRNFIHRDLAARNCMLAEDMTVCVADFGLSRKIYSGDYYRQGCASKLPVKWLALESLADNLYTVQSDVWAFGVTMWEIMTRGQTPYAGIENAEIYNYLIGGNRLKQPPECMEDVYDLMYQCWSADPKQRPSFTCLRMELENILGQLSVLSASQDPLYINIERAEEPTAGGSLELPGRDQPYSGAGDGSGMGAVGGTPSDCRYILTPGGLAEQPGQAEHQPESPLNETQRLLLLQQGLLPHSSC", "settings": "read-out: % Inhibition (at 10mM)"}, "PIM3": {"molecular_target": "PIM3 (Homo sapiens, UniProt Q86V86)", "settings": "read-out: % Inhibition (at 10mM)"}, "CK1_alpha1L": {"molecular_target": "T6, CK1_alpha1L (Homo sapiens, UniProt Q8N752)", "T6 construct": "gene CSNK1A1L", "settings": "read-out: % Inhibition (at 10mM)"}, "Flt1": {"molecular_target": "Flt1 (Homo sapiens, UniProt P17948)", "settings": "read-out: % Inhibition (at 10mM)"}, "CamKII_alpha": {"molecular_target": "T7, CamKII_alpha (Homo sapiens, UniProt Q9UQM7)", "T7 construct": "gene CAMK2A", "settings": "read-out: % Inhibition (at 10mM)"}, "AKT3": {"molecular_target": "AKT3 (Homo sapiens, UniProt Q9Y243)", "settings": "read-out: % Inhibition (at 10mM)"}, "SGK3": {"molecular_target": "SGK3 (Homo sapiens, UniProt Q96BR1)", "sequence (Q96BR1 whole entry)": "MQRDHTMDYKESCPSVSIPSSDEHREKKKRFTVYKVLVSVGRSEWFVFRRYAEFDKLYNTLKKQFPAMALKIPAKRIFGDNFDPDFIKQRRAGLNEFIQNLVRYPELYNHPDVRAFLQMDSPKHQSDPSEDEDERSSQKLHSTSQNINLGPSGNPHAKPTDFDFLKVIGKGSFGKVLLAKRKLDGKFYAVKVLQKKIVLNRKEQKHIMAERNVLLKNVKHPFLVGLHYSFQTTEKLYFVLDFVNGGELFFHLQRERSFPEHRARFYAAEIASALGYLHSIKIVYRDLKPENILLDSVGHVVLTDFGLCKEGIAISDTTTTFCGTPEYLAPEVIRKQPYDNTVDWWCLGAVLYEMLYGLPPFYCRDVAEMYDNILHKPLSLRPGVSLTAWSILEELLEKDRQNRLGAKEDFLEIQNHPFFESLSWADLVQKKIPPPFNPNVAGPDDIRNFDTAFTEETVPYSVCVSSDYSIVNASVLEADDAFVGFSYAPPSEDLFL", "settings": "read-out: % Inhibition (at 10mM)"}, "CK1_alpha1": {"molecular_target": "T8, CK1_alpha1 (Homo sapiens, UniProt P48729)", "T8 construct": "gene CSNK1A1", "T8 sequence (P48729 whole entry)": "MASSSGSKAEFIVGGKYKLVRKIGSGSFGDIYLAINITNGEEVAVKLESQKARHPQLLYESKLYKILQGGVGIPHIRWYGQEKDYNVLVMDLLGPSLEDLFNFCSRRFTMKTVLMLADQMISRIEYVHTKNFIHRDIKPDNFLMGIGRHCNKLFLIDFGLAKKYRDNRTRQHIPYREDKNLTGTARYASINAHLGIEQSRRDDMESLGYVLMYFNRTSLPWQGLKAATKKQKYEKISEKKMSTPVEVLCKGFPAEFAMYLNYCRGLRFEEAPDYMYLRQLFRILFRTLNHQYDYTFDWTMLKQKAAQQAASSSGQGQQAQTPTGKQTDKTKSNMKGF", "settings": "read-out: % Inhibition (at 10mM)"}, "FAK2": {"molecular_target": "T9, FAK2 (Homo sapiens, UniProt Q14289)", "T9 construct": "gene PTK2B", "T9 sequence (Q14289 whole entry)": "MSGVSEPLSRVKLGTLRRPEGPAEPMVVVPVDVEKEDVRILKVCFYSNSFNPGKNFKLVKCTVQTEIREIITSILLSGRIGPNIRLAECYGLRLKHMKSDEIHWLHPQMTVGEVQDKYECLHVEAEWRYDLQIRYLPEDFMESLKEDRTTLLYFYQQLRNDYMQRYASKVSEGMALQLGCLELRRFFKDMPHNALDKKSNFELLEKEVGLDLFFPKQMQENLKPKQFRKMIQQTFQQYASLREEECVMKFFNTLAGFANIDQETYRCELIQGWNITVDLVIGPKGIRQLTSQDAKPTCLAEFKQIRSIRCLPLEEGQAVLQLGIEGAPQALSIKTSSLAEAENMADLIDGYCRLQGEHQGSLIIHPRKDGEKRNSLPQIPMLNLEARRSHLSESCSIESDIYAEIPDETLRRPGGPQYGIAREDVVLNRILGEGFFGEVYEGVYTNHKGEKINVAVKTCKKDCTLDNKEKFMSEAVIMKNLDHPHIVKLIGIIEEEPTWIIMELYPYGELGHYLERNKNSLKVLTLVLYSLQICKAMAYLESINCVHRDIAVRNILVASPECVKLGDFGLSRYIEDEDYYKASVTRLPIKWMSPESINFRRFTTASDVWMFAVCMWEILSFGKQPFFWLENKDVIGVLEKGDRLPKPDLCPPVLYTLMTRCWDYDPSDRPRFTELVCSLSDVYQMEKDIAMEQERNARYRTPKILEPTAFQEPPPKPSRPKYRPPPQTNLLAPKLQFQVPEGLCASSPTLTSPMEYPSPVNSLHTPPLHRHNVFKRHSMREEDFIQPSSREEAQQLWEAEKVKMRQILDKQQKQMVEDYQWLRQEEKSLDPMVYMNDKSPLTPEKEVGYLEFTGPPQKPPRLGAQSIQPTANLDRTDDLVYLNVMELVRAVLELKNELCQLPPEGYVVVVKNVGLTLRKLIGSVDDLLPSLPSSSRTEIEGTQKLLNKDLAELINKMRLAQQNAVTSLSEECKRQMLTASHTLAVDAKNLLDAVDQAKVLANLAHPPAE", "settings": "read-out: % Inhibition (at 10mM)"}, "EphA1": {"molecular_target": "EphA1 (Homo sapiens, UniProt P21709)", "settings": "read-out: % Inhibition (at 10mM)"}, "MARK2": {"molecular_target": "MARK2 (Homo sapiens, UniProt Q7KZI7)", "settings": "read-out: % Inhibition (at 10mM)"}, "NEK4": {"molecular_target": "NEK4 (Homo sapiens, UniProt P51957)", "sequence (P51957 whole entry)": "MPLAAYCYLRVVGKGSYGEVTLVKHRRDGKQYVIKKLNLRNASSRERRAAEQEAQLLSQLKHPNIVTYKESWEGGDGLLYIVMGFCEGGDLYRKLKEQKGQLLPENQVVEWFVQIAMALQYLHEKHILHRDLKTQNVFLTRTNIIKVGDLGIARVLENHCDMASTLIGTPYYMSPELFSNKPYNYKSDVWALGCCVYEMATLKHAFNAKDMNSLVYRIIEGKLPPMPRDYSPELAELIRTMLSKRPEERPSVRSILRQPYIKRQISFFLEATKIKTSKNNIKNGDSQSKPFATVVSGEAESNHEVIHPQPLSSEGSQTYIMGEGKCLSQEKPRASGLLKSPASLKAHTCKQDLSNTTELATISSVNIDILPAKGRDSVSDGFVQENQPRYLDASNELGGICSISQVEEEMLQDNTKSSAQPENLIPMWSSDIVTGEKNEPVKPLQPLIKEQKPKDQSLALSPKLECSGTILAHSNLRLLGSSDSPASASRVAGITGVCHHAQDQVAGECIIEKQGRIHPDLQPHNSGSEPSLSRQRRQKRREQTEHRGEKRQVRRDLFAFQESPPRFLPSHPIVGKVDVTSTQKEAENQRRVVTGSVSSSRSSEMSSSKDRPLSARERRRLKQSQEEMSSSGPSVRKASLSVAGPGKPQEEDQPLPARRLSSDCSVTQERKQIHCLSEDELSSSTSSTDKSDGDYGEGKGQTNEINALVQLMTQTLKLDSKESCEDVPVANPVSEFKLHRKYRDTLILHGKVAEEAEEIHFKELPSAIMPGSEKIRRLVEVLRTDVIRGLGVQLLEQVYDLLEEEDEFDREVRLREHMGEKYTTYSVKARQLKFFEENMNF", "settings": "read-out: % Inhibition (at 10mM)"}, "MARK1": {"molecular_target": "MARK1 (Homo sapiens, UniProt Q9P0L2)", "settings": "read-out: % Inhibition (at 10mM)"}, "TNK1": {"molecular_target": "TNK1 (Homo sapiens, UniProt Q13470)", "settings": "read-out: % Inhibition (at 10mM)"}, "Fgr": {"molecular_target": "Fgr (Homo sapiens, UniProt P09769)", "sequence (P09769 whole entry)": "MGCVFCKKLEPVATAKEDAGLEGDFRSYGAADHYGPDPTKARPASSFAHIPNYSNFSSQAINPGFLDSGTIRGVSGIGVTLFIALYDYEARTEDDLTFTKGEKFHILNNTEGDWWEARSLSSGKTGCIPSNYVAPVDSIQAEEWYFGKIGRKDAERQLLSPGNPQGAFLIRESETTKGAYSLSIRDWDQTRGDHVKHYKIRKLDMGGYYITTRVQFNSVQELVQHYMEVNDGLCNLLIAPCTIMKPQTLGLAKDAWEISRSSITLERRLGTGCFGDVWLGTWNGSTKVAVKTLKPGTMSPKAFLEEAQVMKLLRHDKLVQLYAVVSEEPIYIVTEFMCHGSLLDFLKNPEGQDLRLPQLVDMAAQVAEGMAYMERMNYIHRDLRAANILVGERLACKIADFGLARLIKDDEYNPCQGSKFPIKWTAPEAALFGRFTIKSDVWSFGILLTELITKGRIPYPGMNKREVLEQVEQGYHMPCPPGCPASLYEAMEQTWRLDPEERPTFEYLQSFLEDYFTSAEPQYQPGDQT", "settings": "read-out: % Inhibition (at 10mM)"}, "SGK2": {"molecular_target": "SGK2 (Homo sapiens, UniProt Q9HBY8)", "settings": "read-out: % Inhibition (at 10mM)"}, "CDK5/p25": {"molecular_target": "T10, CDK5/p25 (Homo sapiens, UniProt Q00535)", "T10 construct": "p25", "settings": "read-out: % Inhibition (at 10mM)"}, "FAK": {"molecular_target": "T11, FAK (Homo sapiens, UniProt Q05397)", "T11 construct": "gene PTK2", "settings": "read-out: % Inhibition (at 10mM)"}, "MARK4": {"molecular_target": "MARK4 (Homo sapiens, UniProt Q96L34)", "settings": "read-out: % Inhibition (at 10mM)"}, "PKC_alpha": {"molecular_target": "T12, PKC_alpha (Homo sapiens, UniProt P17252)", "T12 construct": "gene PRKCA", "settings": "read-out: % Inhibition (at 10mM)"}, "Abl": {"molecular_target": "T13, Abl (Homo sapiens, UniProt P00519)", "T13 construct": "gene ABL1", "settings": "read-out: % Inhibition (at 10mM)"}, "PAK2": {"molecular_target": "PAK2 (Homo sapiens, UniProt Q13177)", "settings": "read-out: % Inhibition (at 10mM)"}, "EphB2": {"molecular_target": "EphB2 (Homo sapiens, UniProt P29323)", "settings": "read-out: % Inhibition (at 10mM)"}, "PASK": {"molecular_target": "PASK (Homo sapiens, UniProt Q96RG2)", "settings": "read-out: % Inhibition (at 10mM)"}, "PrKX": {"molecular_target": "PrKX (Homo sapiens, UniProt P51817)", "settings": "read-out: % Inhibition (at 10mM)"}, "Mink1": {"molecular_target": "Mink1 (Homo sapiens, UniProt Q8N4C8)", "settings": "read-out: % Inhibition (at 10mM)"}, "LTK": {"molecular_target": "LTK (Homo sapiens, UniProt P29376)", "text": "(§1) The detection of EGFR (another HER family member) was ambiguous because the peptides used to detect it were also present in ERBB2."}, "DYRK1B": {"molecular_target": "DYRK1B (Homo sapiens, UniProt Q9Y463)", "text": "as §1"}},
  "data": [
    {"smiles": "CC(C)(O)CC(=O)NCCn1ccc2ncnc(Nc3ccc(Oc4cccc(C(F)(F)F)c4)c(Cl)c3)c21", "note": "[TAK-285]", "values": [
      {"measurement": "inhibition", "setting": "GRK2", "result": 0, "unit": "%"},
      {"measurement": "inhibition", "setting": "EphA5", "result": 2, "unit": "%"},
      {"measurement": "inhibition", "setting": "Ros", "result": 7.5, "unit": "%"},
      {"measurement": "inhibition", "setting": "p70S6Kb", "result": 2.5, "unit": "%"},
      {"measurement": "inhibition", "setting": "PRKAA1", "result": 6, "unit": "%"},
      {"measurement": "inhibition", "setting": "MuSK", "result": 17.5, "unit": "%"},
      {"measurement": "inhibition", "setting": "PKC_gamma", "result": 8, "unit": "%"},
      {"measurement": "inhibition", "setting": "PKC_beta1", "result": 5, "unit": "%"},
      {"measurement": "inhibition", "setting": "EphA8", "result": 8, "unit": "%"},
      {"measurement": "inhibition", "setting": "Rse", "result": 10.5, "unit": "%"},
      {"measurement": "inhibition", "setting": "PIM3", "result": 1, "unit": "%"},
      {"measurement": "inhibition", "setting": "CK1_alpha1L", "result": 3, "unit": "%"},
      {"measurement": "inhibition", "setting": "Flt1", "result": -1.5, "unit": "%"},
      {"measurement": "inhibition", "setting": "CamKII_alpha", "result": 2.5, "unit": "%"},
      {"measurement": "inhibition", "setting": "AKT3", "result": 5, "unit": "%"},
      {"measurement": "inhibition", "setting": "SGK3", "result": 2, "unit": "%"},
      {"measurement": "inhibition", "setting": "CK1_alpha1", "result": 5.5, "unit": "%"},
      {"measurement": "inhibition", "setting": "FAK2", "result": 4, "unit": "%"},
      {"measurement": "inhibition", "setting": "EphA1", "result": 7, "unit": "%"},
      {"measurement": "inhibition", "setting": "MARK2", "result": 5.5, "unit": "%"},
      {"measurement": "inhibition", "setting": "NEK4", "result": 8.5, "unit": "%"},
      {"measurement": "inhibition", "setting": "MARK1", "result": 10, "unit": "%"},
      {"measurement": "inhibition", "setting": "TNK1", "result": 12, "unit": "%"},
      {"measurement": "inhibition", "setting": "Fgr", "result": 65, "unit": "%"},
      {"measurement": "inhibition", "setting": "SGK2", "result": 3.5, "unit": "%"},
      {"measurement": "inhibition", "setting": "CDK5/p25", "result": 8, "unit": "%"},
      {"measurement": "inhibition", "setting": "FAK", "result": 7.5, "unit": "%"},
      {"measurement": "inhibition", "setting": "MARK4", "result": 3.5, "unit": "%"},
      {"measurement": "inhibition", "setting": "PKC_alpha", "result": 13.5, "unit": "%"},
      {"measurement": "inhibition", "setting": "Abl", "result": 9, "unit": "%"},
      {"measurement": "inhibition", "setting": "PAK2", "result": 10.5, "unit": "%"},
      {"measurement": "inhibition", "setting": "EphB2", "result": 12, "unit": "%"},
      {"measurement": "inhibition", "setting": "PASK", "result": 2.5, "unit": "%"},
      {"measurement": "inhibition", "setting": "PrKX", "result": 6.5, "unit": "%"},
      {"measurement": "inhibition", "setting": "Mink1", "result": 7, "unit": "%"},
      {"measurement": "inhibition at 10 µM", "setting": "LTK", "result": 0.5, "unit": "%"},
      {"measurement": "inhibition at 10 µM", "setting": "DYRK1B", "result": 3, "unit": "%"}
    ]}
  ]
}
